According to patent publication US7196110B2, “N-substituted tricyclic 3-aminopyrazoles as inhibitors for the treatment of cell proliferative disorders” (Janssen Phamaceutica N.V., priority 2002, dated 2007):

Target: T1, PDGF-receptor beta enzyme comprising the tyrosine kinase domain (Homo sapiens, UniProt P09619)
T1 construct: from amino acid 545 to 1106 of GenBank Access NO: AAA36427
Experiment: Inhibition of PDGF-receptor kinase activity (cell-free, PLC1 peptide, 33P Flashplate)
Type: biochemical
Conditions: PDGF-R kinase activity; for inhibition at 10 µM: compound at 10 uM, read-out: Percent Inhibition @ 10 uM; for IC50: read-out: IC50
Outline: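 The IC50 is the inhibitor level halving kinase activity relative to inhibitor-free wells, measured as 33P captured on a streptavidin-bound biotin-PLC1 peptide. The reaction ran 60 min at 30 °C in pH 8 Tris buffer with 1 mM DTT, 5 μM ATP and the 545–1106 kinase-domain enzyme.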

T1 sequence (P09619 545-1106): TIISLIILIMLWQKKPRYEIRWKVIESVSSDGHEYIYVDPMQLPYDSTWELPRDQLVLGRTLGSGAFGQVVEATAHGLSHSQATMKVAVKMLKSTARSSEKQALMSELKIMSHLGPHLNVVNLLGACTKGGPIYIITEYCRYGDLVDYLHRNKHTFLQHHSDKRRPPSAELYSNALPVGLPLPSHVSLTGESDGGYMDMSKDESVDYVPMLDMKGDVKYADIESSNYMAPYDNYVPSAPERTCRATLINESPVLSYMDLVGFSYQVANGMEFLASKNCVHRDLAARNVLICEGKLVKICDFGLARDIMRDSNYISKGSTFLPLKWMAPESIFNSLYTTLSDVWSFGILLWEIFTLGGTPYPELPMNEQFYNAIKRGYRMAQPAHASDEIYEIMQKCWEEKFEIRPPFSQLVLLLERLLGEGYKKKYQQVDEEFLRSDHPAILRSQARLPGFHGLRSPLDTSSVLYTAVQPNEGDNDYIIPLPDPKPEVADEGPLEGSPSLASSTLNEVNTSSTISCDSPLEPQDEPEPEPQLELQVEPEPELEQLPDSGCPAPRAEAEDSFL

| SMILES | inhibition at 10 µM | IC50 |
| --- | --- | --- |
| COc1cc2c(cc1OC)-c1c(c(Nc3cccc(F)c3)nn1C(=O)COC(=O)C(C)C)C2 [Compound 474, Isobutyric acid 2-[3-(3-fluoro-phenylamino)-6,7-dimethoxy-4H-indeno[1,2-c]pyrazol-1-yl]-2-oxo-ethyl ester] | 91.5% | 63.4 nM |
| COCn1nc2c(c1Nc1cccc(F)c1)Cc1cc(OC)c(OC)cc1-2 [Compound 475, (6,7-Dimethoxy-2-methoxymethyl-2,4-dihydro-indeno[1,2-c]pyrazol-3-yl)-(3-fluoro-phenyl)-amine] | 65.5% | 5030 nM |
| COc1cc2c(cc1OC)-c1n[nH]c(Nc3c(F)cccc3F)c1C2 [Compound 476, (2,6-Difluoro-phenyl)-(6,7-dimethoxy-2,4-dihydro-indeno[1,2-c]pyrazol-3-yl)-amine] | 88.5% | 250 nM |
| COc1cc2c(cc1OC)-c1n[nH]c(Nc3c(F)cc(F)cc3F)c1C2 [Compound 477, (6,7-Dimethoxy-2,4-dihydro-indeno[1,2-c]pyrazol-3-yl)-(2,4,6-trifluoro-phenyl)-amine] | 95% | 229 nM |
| Brc1cccc(Nc2[nH]nc3c2Cc2c(OCCN4CCCC4)cccc2-3)c1 [Compound 478, (3-Bromo-phenyl)-[5-(2-pyrrolidin-1-yl-ethoxy)-2,4-dihydro-indeno[1,2-c]pyrazol-3-yl]-amine] | 93.5% | 162 nM |
| OCC(O)COc1cccc2c1Cc1c-2n[nH]c1NCc1c(Cl)cccc1Cl (stereo not drawn) [Compound 479, 3-[3-(2,6-Dichloro-benzylamino)-2,4-dihydro-indeno[1,2-c]pyrazol-5-yloxy]-propane-1,2-diol] | 94.5% | 624 nM |
| COc1cc2c(cc1OC)-c1c(c(Nc3cccc(F)c3)nn1C(=O)c1c(F)cccc1F)C2 [Compound 480, (2,6-Difluoro-phenyl)-[3-(3-fluoro-Phenylamino)-6,7-dimethoxy-4H-indeno[1,2-c]pyrazol-1-yl]-methanone] | 8% |  |
| COc1cc2c(cc1OC)-c1c(c(Nc3cccc(F)c3)nn1C(=O)c1ccccc1F)C2 [Compound 481, (2-Fluoro-phenyl)-[3-(3-fluoro-phenylamino)-6,7-dimethoxy-4H-indeno[1,2-c]pyrazol-1-yl]-methanone] | 59% | 3760 nM |
| COc1cc2c(cc1OC)-c1c(c(Nc3cccc(F)c3)nn1CC(C)=O)C2 [Compound 484, 1-[3-(3-Fluoro-phenylamino)-6,7-dimethoxy-4H-indeno[1,2-c]pyrazol-1-yl]-propan-2-one] | 87% | 218 nM |
| COc1cc2c(cc1OC)C(C)(C)c1c-2n[nH]c1Nc1cccc(Br)c1 [Compound 485, (3-Bromo-phenyl)-(6,7-dimethoxy-4,4-dimethyl-2,4-dihydro-indeno[1,2-c]pyrazol-3-yl)-amine] | 32% | 59000 nM |
| COc1cc2c(cc1OC)C(C)(C)c1c-2n[nH]c1Nc1cccc(Cl)c1 [Compound 486, (3-Chloro-phenyl)-(6,7-dimethoxy-4,4-dimethyl-2,4-dihydro-indeno[1,2-c]pyrazol-3-yl)-amine] | 34.5% | 15800 nM |
| COc1cc2c(cc1OC)C(C)(C)c1c-2n[nH]c1Nc1cccc(F)c1 [Compound 487, (6,7-Dimethoxy-4,4-dimethyl-2,4-dihydro-indeno[1,2-c]pyrazol-3-yl)-(3-fluoro-phenyl)-amine] | 43% | 37500 nM |
| COc1cccc(Nc2[nH]nc3c2C(C)(C)c2cc(OC)c(OC)cc2-3)c1 [Compound 488, (6,7-Dimethoxy-4,4-dimethyl-2,4-dihydro-indeno[1,2-c]pyrazol-3-yl)-(3-methoxy-phenyl)-amine] | 33.5% | 39300 nM |
| CCOc1cccc(Nc2[nH]nc3c2C(C)(C)c2cc(OC)c(OC)cc2-3)c1 [Compound 489, (6,7-Dimethoxy-4,4-dimethyl-2,4-dihydro-indeno[1,2-c]pyrazol-3-yl)-(3-ethoxy-phenyl)-amine] | 25.5% |  |
| CCCC(=O)OCn1nc2c(c1Nc1cccc(F)c1)Cc1cc(OC)c(OC)cc1-2 [Compound 491, Butyric acid 3-(3-fluoro-phenylamino)-6,7-dimethoxy-4H-indeno[1,2-c]pyrazol-2-ylmethyl ester] | 92% | 314 nM |
| COc1cc2c(cc1OC)-c1c(c(Nc3cccc(F)c3)nn1C(=O)c1ccc(F)cc1)C2 [Compound 492, (4-Fluoro-phenyl)-[3-(3-fluoro-phenylamino)-6,7-dimethoxy-4H-indenol[1,2-c]pyrazol-1-yl]-methanone] | 78% | 472 nM |
| COc1cc2c(cc1OC)-c1c(c(Nc3cccc(F)c3)nn1C(=O)c1ccc(Cl)cc1)C2 [Compound 494, (4-Chloro-phenyl)-[3-(3-fluoro-phenylamino)-6,7-dimethoxy-4H-indeno[1,2-c]pyrazol-1-yl]-methanone] | 83% | 1540 nM |
| COc1cc2c(cc1OC)-c1c(c(Nc3cccc(F)c3)nn1COC(C)=O)C2 [Compound 496, Acetic acid 3-(3-fluoro-phenylamino)-6,7-dimethoxy-4H-indeno[1,2-c]pyrazol-1-ylmethyl ester] | 88.5% | 13.6 nM |
| COc1cc2c(cc1OC)-c1nn(COC(C)=O)c(Nc3cccc(F)c3)c1C2 [Compound 497, Acetic acid 3-(3-fluoro-phenylamino)-6,7-dimethoxy-4H-indeno[1,2-c]pyrazol-2-ylmethyl ester] | 97% | 77.7 nM |
| COc1cc2c(cc1OC)-c1c(c(Nc3cccc(F)c3)nn1Cc1ccc(OC(C)=O)cc1)C2 [Compound 498, Acetic acid 4-[3-(3-fluoro-phenylamino)-6,7-dimethoxy-4H-indeno[1,2-c]pyrazol-1-ylmethyl]-phenyl ester] | 51.5% | 8330 nM |
| COc1cc2c(cc1OC)-c1nn(Cc3ccc(OC(C)=O)cc3)c(Nc3cccc(F)c3)c1C2 [Compound 499, Acetic acid 4-[3-(3-fluoro-phenylamino)-6,7-dimethoxy-4H-indeno[1,2-c]pyrazol-2-ylmethyl]-phenyl ester] | 87% | 1740 nM |
| COc1cc2c(cc1OC)-c1c(c(Nc3cccc(F)c3)nn1C(=O)Oc1ccc(F)cc1)C2 [Compound 500, 3-(3-Fluoro-phenylamino)-6,7-dimethoxy-4H-indeno[1,2-c]pyrazole-1-carboxylic acid 4-fluoro-phenyl ester] | 80.5% | 492 nM |
| COc1cc2c(cc1OC)-c1c(c(Nc3cccc(F)c3)nn1C(=O)Oc1ccc(Cl)cc1)C2 [Compound 501, 3-(3-Fluoro-phenylamino)-6,7-dimethoxy-4H-indeno[1,2-c]pyrazole-1-carboxylic acid 4-chloro-phenyl ester] | 90% | 96 nM |
| COc1cc2c(cc1OC)-c1c(c(Nc3cccc(F)c3)nn1CC(C)O)C2 (stereo not drawn) [Compound 502, 1-[3-(3-Fluoro-phenylamino)-6,7-dimethoxy-4H-indeno[1,2-c]pyrazol-1-yl]-propan-2-ol] | 60.5% | 54000 nM |
| COc1cc2c(cc1OC)-c1nn(C(=O)Oc3ccc(F)cc3)c(Nc3cccc(F)c3)c1C2 [Compound 503, 3-(3-Fluoro-phenylamino)-6,7-dimethoxy-4H-indeno[1,2-c]pyrazole-2-carboxylic acid 4-fluoro-phenyl ester] | 103% | 45.1 nM |
